# Test results: PubChem BioAssay (NCI)
#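 Grown in 96-well plates, cells were treated for 48 hours with each compound at five concentrations. Insufficient inhibition: endpoint recorded as highest concentration tested. The concentration for full growth arrest is given as TGI.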
# What was measured:
# Assay in all cases: NCI anticancer screen, dose series, 48 h
# SK-OV-3 ovarian = system: SK-OV-3 ovarian
# MOLT-4 leukemia = system: MOLT-4 leukemia
# MALME-3M melanoma = system: MALME-3M melanoma
# 786-0 renal = system: 786-0 renal
# SW-620 colon = system: SW-620 colon
# SK-MEL-5 melanoma = system: SK-MEL-5 melanoma
# EKVX NSCLC = system: EKVX NSCLC
# CCRF-CEM leukemia = system: CCRF-CEM leukemia
# HS 578T breast = system: HS 578T breast
# IGROV1 ovarian = system: IGROV1 ovarian
# SF-268 CNS = system: SF-268 CNS
# SNB-75 CNS = system: SNB-75 CNS
# SN12C renal = system: SN12C renal
# KM12 colon = system: KM12 colon
# NCI/ADR-RES ovarian = system: NCI/ADR-RES ovarian
# TK-10 renal = system: TK-10 renal
# OVCAR-4 ovarian = system: OVCAR-4 ovarian
# MDA-MB-231 breast = system: MDA-MB-231 breast
# LOX IMVI melanoma = system: LOX IMVI melanoma
# ACHN renal = system: ACHN renal
# OVCAR-8 ovarian = system: OVCAR-8 ovarian
# UACC-257 melanoma = system: UACC-257 melanoma
# RPMI-8226 leukemia = system: RPMI-8226 leukemia
# A498 renal = system: A498 renal
# MDA-MB-435 = system: MDA-MB-435
# A549 NSCLC = system: A549 NSCLC
# HOP-62 NSCLC = system: HOP-62 NSCLC
# NCI-H226 lung = system: NCI-H226 lung
# COLO 205 colon = system: COLO 205 colon
# U251 CNS = system: U251 CNS
# SNB-19 CNS = system: SNB-19 CNS
# K-562 leukemia = system: K-562 leukemia
# OVCAR-5 ovarian = system: OVCAR-5 ovarian
# UACC-62 melanoma = system: UACC-62 melanoma
# M14 melanoma = system: M14 melanoma
# HCT-116 colon = system: HCT-116 colon
# DU-145 prostate = system: DU-145 prostate
# OVCAR-3 ovarian = system: OVCAR-3 ovarian
# SF-295 CNS = system: SF-295 CNS
# SK-MEL-28 melanoma = system: SK-MEL-28 melanoma
# MDA-N = system: MDA-N
# SK-MEL-2 melanoma = system: SK-MEL-2 melanoma
# NCI-H23 lung = system: NCI-H23 lung
# HT29 colon = system: HT29 colon
# PC-3 prostate = system: PC-3 prostate
# HCT-15 colon = system: HCT-15 colon
# UO-31 renal = system: UO-31 renal
# MCF7 breast = system: MCF7 breast
# HOP-92 NSCLC = system: HOP-92 NSCLC
# RXF 393 renal = system: RXF 393 renal
# SF-539 CNS = system: SF-539 CNS
# NCI-H460 lung = system: NCI-H460 lung
# HL-60(TB) leukemia = system: HL-60(TB) leukemia
# CAKI-1 renal = system: CAKI-1 renal
# SR leukemia = system: SR leukemia
# HCC-2998 colon = system: HCC-2998 colon
# NCI-H522 lung = system: NCI-H522 lung
# T-47D breast = system: T-47D breast
smiles,measurement,setting,value
O=C1/C(=C/c2ccc(Cl)cc2)NC(=S)N1CN1CCOCC1,TGI,SK-OV-3 ovarian,> 100 µM
same,TGI,MOLT-4 leukemia,> 100 µM
same,TGI,MALME-3M melanoma,> 100 µM
same,TGI,786-0 renal,> 100 µM
same,TGI,SW-620 colon,> 100 µM
same,TGI,SK-MEL-5 melanoma,> 100 µM
same,TGI,EKVX NSCLC,> 100 µM
same,TGI,CCRF-CEM leukemia,> 100 µM
same,TGI,HS 578T breast,> 100 µM
same,TGI,IGROV1 ovarian,> 100 µM
same,TGI,SF-268 CNS,> 100 µM
same,TGI,SNB-75 CNS,> 100 µM
same,TGI,SN12C renal,> 100 µM
same,TGI,KM12 colon,> 100 µM
same,TGI,NCI/ADR-RES ovarian,> 100 µM
same,TGI,TK-10 renal,> 100 µM
same,TGI,OVCAR-4 ovarian,> 100 µM
same,TGI,MDA-MB-231 breast,> 100 µM
same,TGI,LOX IMVI melanoma,> 100 µM
same,TGI,ACHN renal,> 100 µM
same,TGI,OVCAR-8 ovarian,> 100 µM
same,TGI,UACC-257 melanoma,> 100 µM
same,TGI,RPMI-8226 leukemia,> 100 µM
same,TGI,A498 renal,> 100 µM
same,TGI,MDA-MB-435,> 100 µM
same,TGI,A549 NSCLC,> 100 µM
same,TGI,HOP-62 NSCLC,> 100 µM
same,TGI,NCI-H226 lung,> 100 µM
same,TGI,COLO 205 colon,> 100 µM
same,TGI,U251 CNS,> 100 µM
same,TGI,SNB-19 CNS,> 100 µM
same,TGI,K-562 leukemia,> 100 µM
same,TGI,OVCAR-5 ovarian,> 100 µM
same,TGI,UACC-62 melanoma,> 100 µM
same,TGI,M14 melanoma,> 100 µM
same,TGI,HCT-116 colon,> 100 µM
same,TGI,DU-145 prostate,> 100 µM
same,TGI,OVCAR-3 ovarian,> 100 µM
same,TGI,SF-295 CNS,> 100 µM
same,TGI,SK-MEL-28 melanoma,> 100 µM
same,TGI,MDA-N,> 100 µM
same,TGI,SK-MEL-2 melanoma,> 100 µM
same,TGI,NCI-H23 lung,> 100 µM
same,TGI,HT29 colon,> 100 µM
same,TGI,PC-3 prostate,> 100 µM
same,TGI,HCT-15 colon,> 100 µM
same,TGI,UO-31 renal,> 100 µM
same,TGI,MCF7 breast,> 100 µM
same,TGI,HOP-92 NSCLC,> 100 µM
CC1(C)C=C(/C=N/Nc2ccc(Br)cc2)C(C#N)=C(O)C1(C#N)C#N,TGI,SK-OV-3 ovarian,> 100 µM
same,TGI,MOLT-4 leukemia,89.8 µM
same,TGI,MALME-3M melanoma,> 100 µM
same,TGI,786-0 renal,> 100 µM
same,TGI,SW-620 colon,> 100 µM
same,TGI,SK-MEL-5 melanoma,> 100 µM
same,TGI,RXF 393 renal,91.3 µM
same,TGI,SF-539 CNS,> 100 µM
same,TGI,EKVX NSCLC,> 100 µM
same,TGI,CCRF-CEM leukemia,> 100 µM
same,TGI,HS 578T breast,> 100 µM
same,TGI,IGROV1 ovarian,> 100 µM
same,TGI,SF-268 CNS,> 100 µM
same,TGI,SNB-75 CNS,> 100 µM
same,TGI,SN12C renal,> 100 µM
same,TGI,KM12 colon,> 100 µM
same,TGI,NCI/ADR-RES ovarian,> 100 µM
same,TGI,NCI-H460 lung,> 100 µM
same,TGI,TK-10 renal,> 100 µM
same,TGI,OVCAR-4 ovarian,> 100 µM
same,TGI,MDA-MB-231 breast,> 100 µM
same,TGI,LOX IMVI melanoma,> 100 µM
same,TGI,HL-60(TB) leukemia,88.1 µM
same,TGI,ACHN renal,> 100 µM
same,TGI,OVCAR-8 ovarian,> 100 µM
same,TGI,CAKI-1 renal,95.4 µM
same,TGI,UACC-257 melanoma,> 100 µM
same,TGI,RPMI-8226 leukemia,> 100 µM
same,TGI,MDA-MB-435,> 100 µM
same,TGI,A549 NSCLC,> 100 µM
same,TGI,HOP-62 NSCLC,> 100 µM
same,TGI,NCI-H226 lung,> 100 µM
same,TGI,COLO 205 colon,36.8 µM
same,TGI,SNB-19 CNS,> 100 µM
same,TGI,K-562 leukemia,> 100 µM
same,TGI,OVCAR-5 ovarian,> 100 µM
same,TGI,UACC-62 melanoma,> 100 µM
same,TGI,M14 melanoma,> 100 µM
same,TGI,SR leukemia,75.5 µM
same,TGI,HCC-2998 colon,> 100 µM
same,TGI,HCT-116 colon,> 100 µM
same,TGI,DU-145 prostate,> 100 µM
same,TGI,OVCAR-3 ovarian,> 100 µM
same,TGI,SF-295 CNS,> 100 µM
same,TGI,SK-MEL-28 melanoma,> 100 µM
same,TGI,MDA-N,> 100 µM
same,TGI,NCI-H23 lung,> 100 µM
same,TGI,HT29 colon,> 100 µM
same,TGI,PC-3 prostate,63.9 µM
same,TGI,UO-31 renal,86 µM
same,TGI,MCF7 breast,> 100 µM
same,TGI,HOP-92 NSCLC,65.7 µM
same,TGI,NCI-H522 lung,> 100 µM
same,TGI,T-47D breast,> 100 µM
